Assay results as given in patent US20250115595A1, “INHIBITORS OF HYPOXIA-INDUCIBLE FACTORS” (The Johns Hopkins University, priority 2021, published 2025).
“Also recorded” adds a separate entry of the source.

How the values were obtained:
C57BL/6 mice = experiment: Laser CNV model, intraperitoneal dosing; assay type: in vivo, mouse
Method: The laser CNV model for neovascular (wet) age-related macular degeneration was used to assess the efficacy of 32-134D in blocking HIF-regulated gene expression in the eye (FIG. 20A). C57BL/6 mice were treated with laser on day 0. Beginning on day 2, mice were treated with 5 daily intraperitoneal (IP) injections (day 2 to day 6) with 32-134D at 40 mg/kg or with vehicle control. On day 7, choroidal flat mounts were prepared and stained with isolectin-B4 to examine the CNV lesions. The expression of Vegf (FIG. 20B) and Angpt14 (FIG. 20C) mRNA was also measured at day 7 following laser treatment.
C57BL/6 mice were treated with laser on day 0. Beginning on day 2, mice were treated with 5 daily IP injections (day 2 to day 6) with 32-134D at 40 mg/kg or with vehicle control. On day 7, mice were euthanized and choroidal flat mounts were stained with isolectin-B4 to examine the area of CNV lesions.

STZ mice = experiment: STZ diabetic mouse model, intraocular dosing; assay type: in vivo; conditions: single intraocular injection 70 ng, 5 days
Method: The efficacy of 32-134D following intraocular administration with 70 ng, as well as a lower dose (14 ng), in OIR mice at P12 (J. Zhang et al., J Clin Invest 131 (2021)) was determined.
The efficacy of 32-134D following IVT administration was also evaluated in the STZ model. STZ mice that were hyperglycemic for 6 months were treated with a single intraocular injection with 70 ng 32-134D in 1 ul or with vehicle (DMSO) control. 5 days later vascular hyperpermeability was assessed by examining leakage of intravascular Evans blue dye in STZ mice.
Vascular permeability by Evans blue tracer method: Mice were anesthetized with a mixture of ketamine (50 mg/kg) and xylazine (5 mg/kg) and subjected to Evans blue (Sigma) (50 mg/kg) perfusion by penile vein injection. […] Images were captured by Zeiss fluorescent microscope or confocal microscopy and fluorescence quantified by image J software (NIH). […] Blinded quantification of the number of leaking vessels was performed by manual counting major leakage from capillaries from retinas of each group. Non-capillary artifactual Evans blue or FITC-dextran leakage due to flat mount processing as well as minor leakages were not included in the quantitation. […] Random fields were chosen from retinas where leakages were absent to determine baseline fluorescence that arise from capillaries. For quantification, high magnifications (20×) images were taken. […]

OIR mice = experiment: OIR mouse model, intraperitoneal dosing; assay type: in vivo
Method: The ability of 32-143D to inhibit ischemia-induced retinal neovascularization was evaluated using the oxygen-induce retinopathy (OIR) model for retinal neovascularization in ischemic retinal diseases, such as retinopathy of prematurity, proliferative diabetic retinopathy, ischemic retinal vein occlusions, or sickle cell retinopathy. Postnatal day 7 (P7) newborn C57BL/6 pups were exposed to hyperoxia (75% O2) for 5 consecutive days before being returned to room air at P12. Beginning at P13, pups were treated with […] IP injections with 32-134D at 20 mg/kg or with vehicle control. 24 hours after the fifth IP injection, at P17, retinal flat mounts were stained with isolectin-B4 to examine the development of retinal neovascularization.
OIR mouse model: OIR experiments were performed as previously described (M. Rodrigues et al., 2013, Diabetes 62, 3863-3873). Briefly, C57BL/6 mice were placed in 75% O2 on P7. On P12, the mice were returned to room air and administered either by IP injection (digoxin and test compound) or by intravitreal injection. Mice with body weight less than 6 g at P17 were excluded from analysis. The data were collected from both males and females and the results combined, as there was no apparent difference between sexes. Representative images for selected time points from a minimum of three independent experiments are shown. Data from 3-8 pups were obtained at each time point.

[1] = daily IP injections 20 mg/kg from P13, P17

Brc1ccc2c(-c3csc(-c4c[nH]c5c(Br)cccc45)n3)c[nH]c2c1 [Compound 32-134D, 4-(6-bromo-1H-indol-3-yl)-2-(7-bromo-1H-indol-3-yl)thiazole]
Vegf mRNA in eyes (C57BL/6 mice; 40 mg/kg IP, day 7 after laser): significantly decreased | CNV lesions (C57BL/6 mice; 5 daily IP injections 40 mg/kg, day 7): marked decrease in CNV | Angpt14 mRNA expression in eyes (C57BL/6 mice; 20 or 40 mg/kg IP, day 7 after laser): significantly decreased | vascular hyperpermeability (Evans blue leakage) (STZ mice): effectively inhibited; also recorded: significant decrease | area of avascular retina (OIR mice; [1]): not significantly different | retinal neovascularization (OIR mice; [1]): significant decrease in neovascularization | mRNA expression of key HIF-regulated vasoactive mediators (OIR mice; five consecutive (P12-P16) IP injections, 20 mg/kg, P17): marked reduction | HIF-1α and HIF-2α protein accumulation in retina (OIR mice; single IP injection, as little as 20 mg/kg, P13 and P14): reduction
